Measurements reported in ChEMBL document CHEMBL1201862, “PubChem BioAssay data set” (2004).
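Test compounds were applied to cells in 96-well plates for 48 hours at 5 doses. GI50 is the concentration that inhibits growth by half.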 Active and inactive are the calls of the source. Cut-off read from the data, not from the text of the source: active = GI50 up to about 1.1 µM and inactive = higher.

Tests used:
Assay in all cases: DTP human tumour cell line panel, 48 h
HCC 2998 = test system: HCC 2998
T47D = test system: T47D
NCI-H460 = test system: NCI-H460
LOX IMVI = test system: LOX IMVI
Hs-578T = test system: Hs-578T
SF-539 = test system: SF-539
MCF7 = test system: MCF7
MDA-MB-231 = test system: MDA-MB-231
HT-29 = test system: HT-29
UACC-257 = test system: UACC-257
CCRF-CEM = test system: CCRF-CEM
KM12 = test system: KM12
SK-MEL-2 = test system: SK-MEL-2
UO-31 = test system: UO-31
NCI/ADR-RES = test system: NCI/ADR-RES
786-0 = test system: 786-0
OVCAR-3 = test system: OVCAR-3
SR = test system: SR
SF-268 = test system: SF-268
Malme-3M = test system: Malme-3M
A549 = test system: A549
SF-295 = test system: SF-295
TK-10 = test system: TK-10
SNB-19 = test system: SNB-19
MDA-MB-435 = test system: MDA-MB-435
A498 = test system: A498
RXF 393 = test system: RXF 393
HOP-62 = test system: HOP-62
M14 = test system: M14
K562 = test system: K562
NCI-H226 = test system: NCI-H226
ACHN = test system: ACHN
CAKI-1 = test system: CAKI-1
NCI-H23 = test system: NCI-H23
MOLT-4 = test system: MOLT-4
SK-OV-3 = test system: SK-OV-3
PC-3 = test system: PC-3
U-251 = test system: U-251
DU-145 = test system: DU-145
OVCAR-8 = test system: OVCAR-8
IGROV-1 = test system: IGROV-1
SNB-75 = test system: SNB-75
RPMI-8226 = test system: RPMI-8226
SK-MEL-28 = test system: SK-MEL-28
OVCAR-5 = test system: OVCAR-5
HOP-92 = test system: HOP-92
MDA-N = test system: MDA-N
EKVX = test system: EKVX
SW-620 = test system: SW-620
HCT-15 = test system: HCT-15
HL-60 = test system: HL-60
HCT-116 = test system: HCT-116
SN12C = test system: SN12C
NCI-H522 = test system: NCI-H522
COLO 205 = test system: COLO 205
SK-MEL-5 = test system: SK-MEL-5
OVCAR-4 = test system: OVCAR-4
UACC-62 = test system: UACC-62

COC(=O)c1cc(CC2Cc3cc4c(cc3C2)CCC4)cc2c1CCC2
GI50 (HCC 2998): > 100 µM (inactive)
GI50 (T47D): > 100 µM (inactive)
GI50 (NCI-H460): > 100 µM (inactive)
GI50 (LOX IMVI): 56.5 µM (inactive)
GI50 (Hs-578T): > 100 µM (inactive)
GI50 (SF-539): > 100 µM (inactive)
GI50 (MCF7): 89.1 µM (inactive)
GI50 (MDA-MB-231): > 100 µM (inactive)
GI50 (HT-29): 49 µM (inactive)
GI50 (UACC-257): 37.2 µM (inactive)
GI50 (CCRF-CEM): 52.5 µM (inactive)
GI50 (KM12): 61.5 µM (inactive)
GI50 (SK-MEL-2): 40.4 µM (inactive)
GI50 (UO-31): > 100 µM (inactive)
GI50 (NCI/ADR-RES): > 100 µM (inactive)
GI50 (786-0): > 100 µM (inactive)
GI50 (OVCAR-3): > 100 µM (inactive)
GI50 (SR): 29.5 µM (inactive)
GI50 (SF-268): > 100 µM (inactive)
GI50 (Malme-3M): > 100 µM (inactive)
GI50 (A549): > 100 µM (inactive)
GI50 (SF-295): > 100 µM (inactive)
GI50 (TK-10): > 100 µM (inactive)
GI50 (SNB-19): > 100 µM (inactive)
GI50 (MDA-MB-435): 48 µM (inactive)
GI50 (A498): > 100 µM (inactive)
GI50 (RXF 393): 62.2 µM (inactive)
GI50 (HOP-62): > 100 µM (inactive)
GI50 (M14): > 100 µM (inactive)
GI50 (K562): > 100 µM (inactive)
GI50 (NCI-H226): > 100 µM (inactive)
GI50 (ACHN): > 100 µM (inactive)
GI50 (CAKI-1): > 100 µM (inactive)
GI50 (NCI-H23): > 100 µM (inactive)
GI50 (MOLT-4): 23.7 µM (inactive)
GI50 (SK-OV-3): > 100 µM (inactive)
GI50 (PC-3): 81.8 µM (inactive)
GI50 (U-251): > 100 µM (inactive)
GI50 (DU-145): > 100 µM (inactive)
GI50 (OVCAR-8): > 100 µM (inactive)
GI50 (IGROV-1): 97.1 µM (inactive)
GI50 (SNB-75): > 100 µM (inactive)
GI50 (RPMI-8226): 41 µM (inactive)
GI50 (SK-MEL-28): > 100 µM (inactive)
GI50 (OVCAR-5): > 100 µM (inactive)
GI50 (HOP-92): 88.9 µM (inactive)
GI50 (MDA-N): 60.3 µM (inactive)
GI50 (EKVX): > 100 µM (inactive)
GI50 (SW-620): > 100 µM (inactive)
GI50 (HCT-15): 67.5 µM
GI50 (HL-60): 56.6 µM (inactive)
GI50 (HCT-116): 58.7 µM (inactive)
GI50 (SN12C): > 100 µM (inactive)
GI50 (NCI-H522): 57.4 µM (inactive)
GI50 (COLO 205): > 100 µM (inactive)
GI50 (SK-MEL-5): 33.9 µM (inactive)
GI50 (OVCAR-4): > 100 µM (inactive)

COc1c(C(=O)NCCN(CCNC(=O)c2cccc(-c3cccc(C(=O)N(C)C)c3OC)c2OC)CCNC(=O)c2cccc(-c3cccc(C(=O)N(C)C)c3OC)c2OC)cccc1-c1cccc(C(=O)N(C)C)c1OC
GI50 (HCC 2998): 17.2 µM (inactive)
GI50 (UACC-62): 31.6 µM (inactive)
GI50 (T47D): 15.1 µM (inactive)
GI50 (NCI-H460): 94.4 µM (inactive)
GI50 (LOX IMVI): 18.1 µM (inactive)
GI50 (Hs-578T): 32.4 µM (inactive)
GI50 (SF-539): 18.1 µM (inactive)
GI50 (MCF7): 18.8 µM (inactive)
GI50 (MDA-MB-231): 32.4 µM (inactive)
GI50 (HT-29): 33.1 µM (inactive)
GI50 (UACC-257): 29 µM (inactive)
GI50 (CCRF-CEM): 31.3 µM (inactive)
GI50 (KM12): 17.3 µM (inactive)
GI50 (UO-31): > 100 µM (inactive)
GI50 (NCI/ADR-RES): > 100 µM (inactive)
GI50 (786-0): 57.3 µM (inactive)
GI50 (OVCAR-3): 16.1 µM (inactive)
GI50 (SR): 26.6 µM (inactive)
GI50 (SF-268): 15.3 µM (inactive)
GI50 (Malme-3M): 18.7 µM (inactive)
GI50 (A549): > 100 µM (inactive)
GI50 (SF-295): > 100 µM (inactive)
GI50 (SNB-19): 56.5 µM (inactive)
GI50 (MDA-MB-435): 20.9 µM (inactive)
GI50 (RXF 393): 26.5 µM (inactive)
GI50 (HOP-62): 97.7 µM (inactive)
GI50 (M14): > 100 µM (inactive)
GI50 (K562): 23.8 µM (inactive)
GI50 (NCI-H226): 17.8 µM (inactive)
GI50 (ACHN): > 100 µM (inactive)
GI50 (CAKI-1): > 100 µM (inactive)
GI50 (NCI-H23): 43.2 µM (inactive)
GI50 (MOLT-4): 24.7 µM (inactive)
GI50 (SK-OV-3): 48.1 µM (inactive)
GI50 (PC-3): 38.4 µM (inactive)
GI50 (U-251): 34 µM (inactive)
GI50 (DU-145): 32.7 µM (inactive)
GI50 (OVCAR-8): > 100 µM (inactive)
GI50 (IGROV-1): 36.1 µM (inactive)
GI50 (SNB-75): 28.7 µM (inactive)
GI50 (RPMI-8226): 25.9 µM (inactive)
GI50 (SK-MEL-28): 19.5 µM (inactive)
GI50 (OVCAR-5): 34.2 µM (inactive)
GI50 (HOP-92): 14.4 µM (inactive)
GI50 (MDA-N): 17.8 µM (inactive)
GI50 (EKVX): 47.6 µM (inactive)
GI50 (SW-620): 38.1 µM (inactive)
GI50 (HCT-15): > 100 µM
GI50 (HL-60): 39.4 µM (inactive)
GI50 (HCT-116): 20 µM (inactive)
GI50 (SN12C): 24.4 µM (inactive)
GI50 (NCI-H522): 21.6 µM (inactive)
GI50 (COLO 205): 22.1 µM (inactive)
GI50 (SK-MEL-5): 30.5 µM (inactive)
GI50 (OVCAR-4): 28.3 µM (inactive)
